# Assay results taken from patent US11253527B2, “Method and composition for inhibiting virus infection” (priority 2019, dated 2022).
# Assays:
# HBV = HBV replication, assembly, secretion in HepG2.2.15 cells (HBsAg/HBeAg ELISA, HBV DNA real-time PCR); assay type: cell-based, Hepatitis B virus
# Description: (§1) HepG2.2.15 cells were cultured with different concentrations of Antrodia camphorata fruit body extracts for 48 h, then the culture medium was collected to measure HBV HBsAg by ELISA. HepG2, containing no HBV, was used as a negative control (NC). The results are expressed as a percentage of the non-drug-treated positive control (NT) and are shown as mean±SD for three independent experiments. *, P<0.05; **, P<0.01; ***, P<0.001.
# as §1, with “HBeAg” for “HBsAg”
# as §1, with “DNA” for “HBsAg”, “real-time PCR. Plasmid p1.3HBcl, which contains a 1.3-fold HBV genome (ayw subtype (Galibert et al., 1979)), was used as standard in parallel PCR reactions, while” for “ELISA.”
# Continuous HBV proliferation can be achieved in HepG2.2.15 cells (RRID:CVCL_L855) stably transfected with the HBV genome of the adw2 subtype. HepG2.2.15 cells are used because of the unlimited supply and constant quality and were maintained in Dulbecco's modified Eagle medium (DMEM; Invitrogen) supplemented with 10% heat-inactivated fetal bovine serum (FBS; Thermo) plus 100 units of penicillin and 100 µg of streptomycin per ml (both from Invitrogen).
# The culture medium from drug-treated HepG2.2.15 cells is clarified by centrifugation at 1,000×g at 4° C. for 10 min, and then the supernatant is layered on top of a 20% sucrose cushion (20% sucrose, 20 mM HEPES, pH 7.4, 0.1% bovine serum albumin [BSA]) and centrifuged at 197,000×g for 3 h at 4° C. to pellet the HBV particles, which are then concentrated 100 fold to detect HBV DNA.
# Total DNA is extracted with a Genomic DNA isolation kit (Nexttec Biotechnologie, Germany). Total RNA is isolated from cultured cells using TRIzol® reagent (Invitrogen). Reverse transcription is performed with the RNA templates, AMV reverse transcriptase (Roche), and oligo-dT primer. The products are subjected to real-time PCR with primer sets of specific genes and SYBR Green PCR Master Mix (Bio-Rad). The primer sets used for HBV core, HBsAg, cccDNA and GAPDH are described. The results are analyzed with the iCycler iQ real-time PCR detection system (Bio-Rad). Plasmid p1.3HBcl is prepared at 10-fold dilutions (2*10^4-2*10^9 […] to generate a standard curve in parallel PCR reactions.
# To test whether Antrodia camphorata fruit body extracts had any effect on HBV genome replication, assembly, or secretion, HepG2.2.15 cells, which stably transfected with HBV genome, were used to incubate with four Antrodia camphorata fruit body extracts for 48 hours, then HBsAg, HBeAg and HBV DNA collected from medium were measured by ELISA and real-time PCR.
# HSV-1 virus (KOS strain) = test: HSV-1 viral yields in supernatants of OC3 cells, plaque assay; assay type: cell-based, Herpes simplex virus type 1
# Description: FIG. 4 provides Experimental conditions for evaluation of the effects of Antrodia camphorata fruit body extracts on oral epithelial cells during HSV-1 infection. Three experimental conditions, including no-treatment, pre-treatment and post-treatment were performed. Oral epithelial cells (OC3) were pre-treated with media only or media containing each Antrodia camphorata extracts for 2 hours, followed by HSV-1 inoculation. Cells were infected with HSV-1 viruses at multiplicity of infection (MOI) of 5 or mock infected for 1 hour at 37° C. for viral entry to occur. Antrodia camphorata extracts were not added during viral inoculation for 1 hour to avoid of its direct effects on virions. Mock- or HSV-1-infected cells were further incubated in the absence or presence of the drug for 19 hours.
# The oral epithelial cell line (OC3) was used to determine the possible effects of Antrodia camphorata extracts on oral epithelial cells during HSV-1 infection. Cell monolayers were treated as illustrated in FIG. 4 (please also see details in the Materials and Methods section). Three experimental conditions, including no-treatment, pre-treatment and post-treatment were performed. Whether these Antrodia camphorata extracts have effects before or after viral infection were examined. The effects of Antrodia camphorata extracts on viral propagation (viral yields) in infected oral epithelial cells were examined. At 19-20 h post infection, viral yields in the supernatants were determined using the plaque assay. Viability of treated cells was also determined using the MTT assay for the mitochondrial dehydrogenase activity. Moreover, purified HSV-1 virions were directly treated with Antrodia camphorata extracts to examine whether Antrodia camphorata extracts exert anti-HSV-1 activity directly on virus particles before viral entry.
# HSV-1 virus (KOS strain) from the extra-cellular fluid of infected Vero cells was purified using sucrose-gradient. Purified viruses were stored frozen in small aliquots. Purified viruses were titered using the plaque assay.
# Oral epithelial cells (OC3 cells) were infected with HSV-1 at multiplicity of infection (MOI) of 5 or mock infected for 1 h at 37° C. for viral entry to occur. Unbound viruses were removed. Infected cells were then overlaid with appropriate media and incubated at 37° C. The Antrodia camphorata fruit body extracts used were A2 (Antrodia camphorata extracts), A3 (dehydrosulphurenic acid), A4 (antcin K), A5 (versisponic acid), and A6 (dehydroeburicoic acid). For the effects of Antrodia camphorata fruit body extracts, oral cells were treated in three different experimental conditions (FIG. 1): (1) no treatment, (2) pre-treatment with each Antrodia camphorata fruit body extracts before infection and (3) post-treatment with each Antrodia camphorata fruit body extracts after infection. Purified HSV-1 virions were also incubated directly with media only or media containing Antrodia camphorata fruit body extracts. The viral infectivity of treated virions was then examined using the plaque assay.
# Viral titers in the supernatants after infection were determined using the plaque assay. Cells were grown to confluence and infected with tenfold serial dilution of the samples. Cells were then overlaid with medium containing 3% carboxymethylcellulose to prevent the formation of secondary plaques. Cells were incubated until well-defined clear plaques were formed. Cells were fixed with 3.7% formaldehyde and stained with crystal violet. Plaques were observed and counted under an inverted microscope. The viral yield of the media-pretreated HSV-1 infected control was considered to be 100%.
# [1] = 48 h, at 20 μg/ml and 50 μg/ml, percentage of non-drug-treated control
smiles,measurement,setting,value
"C=C(CC[C@@H](C)[C@H]1CC[C@H]2C3=C(C(=O)C[C@]12C)[C@@]1(C)CCC(O)[C@](C)(O)C1CC3O)C(C)C(=O)O (stereo partly shown) [A4, antcin K]","HBV replication, the assembly or release of viral particles",HBV,significantly inhibits
same,HBV DNA repressed to,"HBV; 48 h, 50 μg/ml, percentage of non-drug-treated control",55%
same,"level of HBeAg in the culture supernatant, decreased to",HBV; [1],50-60%
same,"level of HBsAg in the culture supernatant, decreased to",HBV; [1],50-60%
same,"HBsAg protein levels, dose dependence",HBV; FIG. 2A,marked dose-dependent reduction
same,"core protein levels, dose dependence",HBV; FIG. 2B,marked dose-dependent reduction
same,"HBV DNA in particles, dose dependence",HBV; FIG. 2C,marked dose-dependent reduction
same,"viral yields in the supernatants, post-treatment","HSV-1 virus (KOS strain); OC3 cells post-treated after HSV-1 infection (MOI 5), 19 hours",significantly reduced
same,"viral yields in the supernatants, pre-treatment",HSV-1 virus (KOS strain); OC3 cells pre-treated 2 hours before HSV-1 infection (MOI 5),little effects
same,viral yield reduced to,"HSV-1 virus (KOS strain); infected OC3 cells post-treated with 100 μg/ml, media control = 100%",19%
